Measured values published in patent US20180237713A1, “Ionic Liquid, Lubricant, and Magnetic Recording Medium” (priority 2015, published 2018).

Legend:
[1] = Solubility test of ionic liquid in fluorine-based solvent VERTREL XF; settings: for Solubility to fluorine-based solvent: VERTREL XF [CF3(CHF)2CF2CF3], 25° C., ultrasonic 5 minutes, left 1 day, visual; for Dissolved or not in fluorine-based solvent: VERTREL XF
Experimental: A solubility test was performed on the ionic liquid synthesized each of Examples and each of Comparative Examples using VERTREL XF [CF3(CHF)2CF2CF3] available from Du Pont-Mitsui Fluorochemicals Company, Ltd. as a fluorine-based solvent.
The ionic liquid was added to the predetermined mass of VERTREL XF.
Specifically, 0.5 parts by mass or 0.1 parts by mass of each ionic liquid was added to 100 parts by mass of VERTREL XF (25° C.).
Note that, a case where the mixture was visually observed to be transparent, the ionic liquid was judged as being dissolved. A case where the mixture was not transparent or insoluble matter was observed, the ionic liquid was judged as not being dissolved (insoluble).
The ionic liquid was dissolved when 0.5 parts by mass of the ionic liquid was added.
The ionic liquid was not dissolved when 0.5 parts by mass of the ionic liquid was added, but the ionic liquid was dissolved when 0.1 parts by mass of the ionic liquid was added.
The ionic liquid was not dissolved both when 0.5 parts by mass of the ionic liquid was added and when 0.1 parts by mass of the ionic liquid was added.

[2] = Thermal stability measurement (TG/DTA weight reduction temperature); settings: for Weight reduction temperature 5% / Weight reduction temperature 10% / Weight reduction temperature 20%: TG/DTA, air 200 mL/min, 10° C./min, 30° C. to 600° C.; for 5%, 10%, 20% weight reduction temperatures (thermal stability) higher than perfluoropolyether Z-DOL (Comparative Example 11C) by: difference to Z-DOL; for 5%, 10%, 20% weight reduction temperatures (thermal stability) higher than Z-TETRAOL (Comparative Example 12C) by: difference to Z-TETRAOL; for Thermal stability improved compared with perfluoropolyether Z-DOL or Z-TETRAOL by: difference to Z-DOL or Z-TETRAOL

heptadecafluorooctanesulfonic acid-6-octadecyl-1,8-diazabicyclo[5.4.0]-7-undecenium [Comp. Ex. 2A, reference compound]
Solubility to fluorine-based solvent [1]: less than 0.1% by mass

CCCCCCCCCCCCCCCCCC[n+]1ccn(CCCC)c1.O=S(=O)([N-]S(=O)(=O)C(F)(F)C(F)(F)C(F)(F)C(F)(F)F)C(F)(F)C(F)(F)C(F)(F)C(F)(F)F
Thermal stability compared to perfluoropolyether Z-DOL or Z-TETRAOL [2]: high

CCCCCCCCCCCCCCCCCC[n+]1ccn(CCC(F)(F)C(F)(F)C(F)(F)C(F)(F)C(F)(F)C(F)(F)C(F)(F)C(F)(F)F)c1.O=S(=O)([N-]S(=O)(=O)C(F)(F)C(F)(F)C(F)(F)C(F)(F)F)C(F)(F)C(F)(F)C(F)(F)C(F)(F)F [Ex. 8A, bis(nonafluorobutanesulfonyl)imide-1-1′H,1′H,2′H,2′H-heptadecafluorodecyl-3-octadecylimidazolium]
Weight reduction temperature 5% [2]: 335.8 °C
Weight reduction temperature 10% [2]: 358.5 °C
Weight reduction temperature 20% [2]: 377.7 °C

CCCCCCCCCCCCCCCCCC[N+]1=C2CCCCCN2CCC1.O=S(=O)([O-])C(F)(F)F
Weight reduction temperature 5% [2]: 319.2 °C
Weight reduction temperature 10% [2]: 346.6 °C
Weight reduction temperature 20% [2]: 389.0 °C
5%, 10%, 20% weight reduction temperatures (thermal stability) higher than perfluoropolyether Z-DOL (Comparative Example 11C) by [2]: ≥ 140 °C
5%, 10%, 20% weight reduction temperatures (thermal stability) higher than Z-TETRAOL (Comparative Example 12C) by [2]: ≥ 80 °C

heptadecafluorooctanesulfonic acid-7-octadecyl-1,5,7-triazabicyclo[4.4.0]-5-decenium [Comp. Ex. 5A, reference compound]
Dissolved or not in fluorine-based solvent [1]: not dissolved
Solubility to fluorine-based solvent [1]: less than 0.1% by mass

CCCCCCCCCCCCCCCCCC[n+]1ccn(CCCC)c1.O=S(=O)([N-]S(=O)(=O)C(F)(F)C(F)(F)C(F)(F)C(F)(F)F)C(F)(F)C(F)(F)C(F)(F)C(F)(F)F [Comp. Ex. 8A, bis(nonafluorobutanesulfonyl)imide-1-butyl-3-n-octadecylimidazolium, reference compound]
Weight reduction temperature 5% [2]: 347.2 °C
Weight reduction temperature 10% [2]: 367.0 °C
Weight reduction temperature 20% [2]: 387.8 °C
Solubility to fluorine-based solvent [1]: less than 0.1% by mass

CCCCCCCCCCCCCCCCCCN1CCCC1.O=S1(=O)NS(=O)(=O)C(F)(F)C(F)(F)C1(F)F
Thermal stability compared to perfluoropolyether Z-DOL or Z-TETRAOL [2]: high

CCCCCCCCCCCCCCCCCCN1CCCC1.O=S(=O)(NS(=O)(=O)C(F)(F)C(F)(F)C(F)(F)C(F)(F)F)C(F)(F)C(F)(F)C(F)(F)C(F)(F)F
Thermal stability improved compared with perfluoropolyether Z-DOL or Z-TETRAOL by [2]: ≥ 70 °C

CCCCCCCCCCCCCCCCCC[N+]1(CCCC)CCCC1.O=S(=O)([N-]S(=O)(=O)C(F)(F)C(F)(F)C(F)(F)C(F)(F)F)C(F)(F)C(F)(F)C(F)(F)C(F)(F)F
Thermal stability improved compared with perfluoropolyether Z-DOL or Z-TETRAOL by [2]: ≥ 90 °C

nonafluorobutanesulfonic acid-N-octadecylpyrrolidinium [Ex. 6A]
Dissolved or not in fluorine-based solvent [1]: could be dissolved

heptadecafluorooctanesulfonic acid-7-octadecyl-1,5,7-triazabicyclo[4.4.0]-5-decenium
Thermal stability compared to perfluoropolyether Z-DOL or Z-TETRAOL [2]: high
Weight reduction temperature 5% [2]: 356.1 °C
Weight reduction temperature 10% [2]: 380.4 °C
Weight reduction temperature 20% [2]: 401.5 °C

CCCCCCCCCCCCCCCCCCn1cc[n+](CCCCC[n+]2ccn(CCCCCCCCCCCCCCCCCC)c2)c1.O=S(=O)([N-]S(=O)(=O)C(F)(F)C(F)(F)C(F)(F)C(F)(F)F)C(F)(F)C(F)(F)C(F)(F)C(F)(F)F.O=S(=O)([N-]S(=O)(=O)C(F)(F)C(F)(F)C(F)(F)C(F)(F)F)C(F)(F)C(F)(F)C(F)(F)C(F)(F)F [Comp. Ex. 9A, 1,5-bis[bis(nonafluorobutanesulfonyl)imide-1-octadecylimidazolium]pentane, reference compound]
Solubility to fluorine-based solvent [1]: less than 0.1% by mass

nonafluorobutanesulfonic acid-N-octadecylpyrrolidinium
Weight reduction temperature 5% [2]: 339.4 °C
Weight reduction temperature 10% [2]: 359.0 °C
Weight reduction temperature 20% [2]: 377.3 °C
Thermal stability improved compared with perfluoropolyether Z-DOL or Z-TETRAOL by [2]: ≥ 95 °C

CCCCCCCCCCCCCCCCCCC1CCCCN2CCCN=C12.O=S1(=O)NS(=O)(=O)C(F)(F)C(F)(F)C1(F)F (stereo not shown) [Comp. Ex. 1A, hexafluorocyclopropane-1,3-bis(sulfonyl)imide-6-octadecyl-1,8-diazabicyclo[5.4.0]-7-undecenium, reference compound]
Weight reduction temperature 5% [2]: 346.3 °C
Weight reduction temperature 10% [2]: 384.1 °C
Weight reduction temperature 20% [2]: 414.0 °C
Solubility to fluorine-based solvent [1]: less than 0.1% by mass

CCCCCCCCCCCCCCCCCCn1cc[n+](CCCCC[n+]2ccn(CCCCCCCCCCCCCCCCCC)c2)c1.O=S(=O)([N-]S(=O)(=O)C(F)(F)C(F)(F)C(F)(F)C(F)(F)F)C(F)(F)C(F)(F)C(F)(F)C(F)(F)F.O=S(=O)([N-]S(=O)(=O)C(F)(F)C(F)(F)C(F)(F)C(F)(F)F)C(F)(F)C(F)(F)C(F)(F)C(F)(F)F
Weight reduction temperature 5% [2]: 360.1 °C
Weight reduction temperature 10% [2]: 384.4 °C
Weight reduction temperature 20% [2]: 402.0 °C
5%, 10%, 20% weight reduction temperatures (thermal stability) higher than perfluoropolyether Z-DOL (Comparative Example 11C) by [2]: ≥ 170 °C
5%, 10%, 20% weight reduction temperatures (thermal stability) higher than Z-TETRAOL (Comparative Example 12C) by [2]: ≥ 120 °C

CCCCCCCCCCCCCCCCCCn1cc[n+](CCC[n+]2ccn(CCCCCCCCCCCCCCCCCC)c2)c1.O=S(=O)([N-]S(=O)(=O)C(F)(F)C(F)(F)C(F)(F)C(F)(F)F)C(F)(F)C(F)(F)C(F)(F)C(F)(F)F.O=S(=O)([N-]S(=O)(=O)C(F)(F)C(F)(F)C(F)(F)C(F)(F)F)C(F)(F)C(F)(F)C(F)(F)C(F)(F)F
Weight reduction temperature 5% [2]: 352.3 °C
Weight reduction temperature 10% [2]: 381.9 °C
Weight reduction temperature 20% [2]: 401.4 °C

CCCCCCCCCCCCCCCCCCC1CCCCN2CCCN=C12.O=S(=O)(NS(=O)(=O)C(F)(F)C(F)(F)C(F)(F)C(F)(F)F)C(F)(F)C(F)(F)C(F)(F)C(F)(F)F
Weight reduction temperature 5% [2]: 352.9 °C
Weight reduction temperature 10% [2]: 378.2 °C
Weight reduction temperature 20% [2]: 396.7 °C
5%, 10%, 20% weight reduction temperatures (thermal stability) higher than perfluoropolyether Z-DOL (Comparative Example 11C) by [2]: ≥ 100 °C
5%, 10%, 20% weight reduction temperatures (thermal stability) higher than Z-TETRAOL (Comparative Example 12C) by [2]: ≥ 50 °C

C[n+]1ccn(CCC(F)(F)C(F)(F)C(F)(F)C(F)(F)C(F)(F)C(F)(F)C(F)(F)C(F)(F)F)c1.O=S(=O)([N-]S(=O)(=O)C(F)(F)C(F)(F)C(F)(F)C(F)(F)F)C(F)(F)C(F)(F)C(F)(F)C(F)(F)F
5%, 10%, 20% weight reduction temperatures (thermal stability) higher than perfluoropolyether Z-DOL (Comparative Example 11C) by [2]: ≥ 150 °C
5%, 10%, 20% weight reduction temperatures (thermal stability) higher than Z-TETRAOL (Comparative Example 12C) by [2]: ≥ 90 °C

tris(trifluoromethanesulfonyl)methide-6-octadecyl-1,8-diazabicyclo[5.4.0]-7-undecenium [Comp. Ex. 3A, reference compound]
Dissolved or not in fluorine-based solvent [1]: not dissolved
Solubility to fluorine-based solvent [1]: less than 0.1% by mass

CCCCCCCCCCCCCCCCCCn1cc[n+](CCC[n+]2ccn(CCCCCCCCCCCCCCCCCC)c2)c1.O=S(=O)([N-]S(=O)(=O)C(F)(F)C(F)(F)C(F)(F)C(F)(F)F)C(F)(F)C(F)(F)C(F)(F)C(F)(F)F.O=S(=O)([N-]S(=O)(=O)C(F)(F)C(F)(F)C(F)(F)C(F)(F)F)C(F)(F)C(F)(F)C(F)(F)C(F)(F)F [Ex. 11A]
Solubility to fluorine-based solvent [1]: 0.5% by mass or greater

CCCCCCCCCCCCCCCCCC[N+]1=C2CCCCCN2CCC1.O=S(=O)([O-])C(F)(F)F [Ex. 7A, trifluoromethanesulfonic acid-8-octadecyl-1,8-diazabicyclo[5.4.0]-7-undecenium]
Solubility to fluorine-based solvent [1]: 0.5% by mass or greater
Solubility to fluorine-based solvent ([1]; listed as Example 7A): ≥ 0.5 % by mass

CCCCCCCCCCCCCCCCCCN1CCCN2CCCN=C12.O=S1(=O)NS(=O)(=O)C(F)(F)C(F)(F)C1(F)F
Thermal stability compared to perfluoropolyether Z-DOL or Z-TETRAOL [2]: high

CCCCCCCCCCCCCCCCCCn1cc[n+](CCCCCCCCC[n+]2ccn(CCCCCCCCCCCCCCCCCC)c2)c1.O=S(=O)([N-]S(=O)(=O)C(F)(F)C(F)(F)C(F)(F)C(F)(F)F)C(F)(F)C(F)(F)C(F)(F)C(F)(F)F.O=S(=O)([N-]S(=O)(=O)C(F)(F)C(F)(F)C(F)(F)C(F)(F)F)C(F)(F)C(F)(F)C(F)(F)C(F)(F)F
5%, 10%, 20% weight reduction temperatures (thermal stability) higher than perfluoropolyether Z-DOL (Comparative Example 11C) by [2]: ≥ 170 °C
5%, 10%, 20% weight reduction temperatures (thermal stability) higher than Z-TETRAOL (Comparative Example 12C) by [2]: ≥ 110 °C

CCCCCCCCCCCCCCCCCC[n+]1ccn(CCC(F)(F)C(F)(F)C(F)(F)C(F)(F)C(F)(F)C(F)(F)C(F)(F)C(F)(F)F)c1.O=S(=O)([N-]S(=O)(=O)C(F)(F)C(F)(F)C(F)(F)C(F)(F)F)C(F)(F)C(F)(F)C(F)(F)C(F)(F)F
5%, 10%, 20% weight reduction temperatures (thermal stability) higher than perfluoropolyether Z-DOL (Comparative Example 11C) by [2]: ≥ 150 °C
5%, 10%, 20% weight reduction temperatures (thermal stability) higher than Z-TETRAOL (Comparative Example 12C) by [2]: ≥ 90 °C

heptadecafluorooctanesulfonic acid-6-octadecyl-1,8-diazabicyclo[5.4.0]-7-undecenium
Thermal stability compared to perfluoropolyether Z-DOL or Z-TETRAOL [2]: high
Weight reduction temperature 5% [2]: 361.9 °C
Weight reduction temperature 10% [2]: 382.7 °C
Weight reduction temperature 20% [2]: 403.5 °C

CCCCCCCCCCCCCCCCCCC1CCCCN2CCCN=C12.O=S1(=O)NS(=O)(=O)C(F)(F)C(F)(F)C1(F)F (stereo not shown)
Thermal stability compared to perfluoropolyether Z-DOL or Z-TETRAOL [2]: high

tris(trifluoromethanesulfonyl)methide-6-octadecyl-1,8-diazabicyclo[5.4.0]-7-undecenium
Thermal stability compared to perfluoropolyether Z-DOL or Z-TETRAOL [2]: high
Weight reduction temperature 5% [2]: 354.9 °C
Weight reduction temperature 10% [2]: 385.0 °C
Weight reduction temperature 20% [2]: 404.3 °C
